US20020028248A1, “RAPID-RELEASE MICRODISPERSIBLE ECADOTRIL PREPARATION” (priority 1996, published 2002)
Like-named read-outs stand apart in the source and are kept apart here.

Experiments:
[1] = Solubility of Ecadotril in water; assay type: physicochemical; conditions: 37 °C
Description: Ecadotril (N-[(S)-α-(mercaptomethyl)hydrocinnamoyl]glycine, benzyl ester, acetate(ester); N-[(S)-α-(acetylthiomethyl)hydrocinnamoyl]glycine, benzyl ester) is an enkephalinase inhibitor used as a hypotensive drug, a cardiac insufficiency therapeutic drug, or the like. […] Therefore, when formulated into tablets, capsules, or the like by conventional methods, sufficient absorbability of Ecadotril in the digestive tract cannot be obtained because of low dispersibility of drug particles. Thus, a preparation of Ecadotril with improved bioavailability, in particular a tablet with high content, has been demanded. Generally, it is known that in order to obtain sufficient absorbability of such water-insoluble drugs, the solubility (dissolving rate) of the drugs is enhanced. For example, Japanese Laid-Open Patent Publication No. 7-76516 discloses a method for spray drying dispersions in which finely ground drug particles and a hydrophilic excipient are dispersed in water. However, according to this method, when powder to be obtained is formulated into tablets, there is a possibility that drug particles come into close contact with each other thereby decreasing the disintegration property and absorbability of the preparation. Furthermore, in the case where water-insoluble drugs such as Ecadotril with a low melting point and high plasticity are used, particles are likely to aggregate. […]

[2] = Dissolution test (in vitro test), paddle method; assay type: physicochemical; conditions: 100 mg of the preparation, distilled water 900 ml, 37° C.
Description: (2) Dissolution test (in vitro test) Apparatus: Dissolution test machine in accordance with The 12th revised Japanese Pharmacopoeia using the paddle method a stirring speed 100 rpm. Test solution: Distilled water 900 ml, 37° C. Collection of solution: Eluates are collected 5, 10, 15, 30, 45, and 60 minutes after the commencement of dissolution, and the respective eluates are filtrated through […] 13; Kento Chemical Co., Ltd.) aqueous filter (0.22 μm). Then, about 1.5 ml each of the filtrates is collected. One milliliter of this filtrate or standard solution is mixed with 1 ml of internal standard, and 25 μl of the mixed solution is injected to HPLC.

solubility ([1]; read-out: solubility in water): ~33 µg/mL
solubility ([1]; read-out: solubility of Ecadotril in water): 33 µg/mL
maximum dissolution amount in the present test [2]: about 30%
Structure (SMILES): CC(=O)SC[C@@H](Cc1ccccc1)C(=O)NCC(=O)OCc1ccccc1 [Ecadotril, N-[(S)-α-(mercaptomethyl)hydrocinnamoyl]glycine, benzyl ester, acetate(ester)]
